Results from patent publication US6790867B2, “Compositions and method for treating infection in cattle and swine” (Schering-Plough Animal Health Corporation, priority 2002, dated 2004).

Test: in vivo
Parameters: species or system cattle
Details: both sexes, bovine, 2.2 mg/kg
Protocol: In a second study, the pharmacokinetic profile of the second active component in Formulation 1A, flunixin, was examined. The pharmacokinetic profile of flunixin was evaluated following administration to cattle as the approved single entity flunixin meglumine product, […], and as the combination product Formulation 1A. This study was conducted in four phases using six cattle (3 males, 3 females). All animals received […] intravenously (IV) in the first phase. This was followed, after a washout period, by the administration of […] intramuscularly (IM) to 3 cows and […] subcutaneously (SQ) to 3 cows. In the next phase the animals were crossed over and received […] or SQ. In the final phase, all six cattle received the flunixin/florfenicol combination product (Formulation 1A). All animals received flunixin at a dose of 2.2 mg/kg, regardless of the formulation or route of administration. Blood samples for determination of flunixin concentration were collected at 0, 0.17, 0.5, 0.75, 1, 2, 3, 4, 6, 8, 12 and 24 hours after dosing. At the final phase of the study, the 6 cattle were given Formulation 1A at a dose of 10 mL per 75 kg SQ (equivalent to 40 mg/kg of florfenicol and 2.2 mg/kg of flunixin). The kinetics of flunixin when administered as Formulation 1A are different from the kinetics of flunixin when administered as […]. As such, the clinical dose response of Formulation 1A were ascertained in a subsequent study (described below).

AUC(0-inf) (im): 10500 ng·h/mL
Cmax (im): 3240 ng/mL
Tmax (im): 30.6 min
AUC(0-inf) (iv): 13600 ng·h/mL
AUC(0-inf) (sc): 10900 ng·h/mL
Cmax (sc): 2860 ng/mL
Tmax (sc): 32.4 min
SMILES: Cc1c(Nc2ncccc2C(=O)O)cccc1C(F)(F)F [Flunixin, flunixin meglumine]
